The target of one data set is T1, CYP2C8 (Homo sapiens, UniProt P10632).
T1 sequence (P10632 1-490): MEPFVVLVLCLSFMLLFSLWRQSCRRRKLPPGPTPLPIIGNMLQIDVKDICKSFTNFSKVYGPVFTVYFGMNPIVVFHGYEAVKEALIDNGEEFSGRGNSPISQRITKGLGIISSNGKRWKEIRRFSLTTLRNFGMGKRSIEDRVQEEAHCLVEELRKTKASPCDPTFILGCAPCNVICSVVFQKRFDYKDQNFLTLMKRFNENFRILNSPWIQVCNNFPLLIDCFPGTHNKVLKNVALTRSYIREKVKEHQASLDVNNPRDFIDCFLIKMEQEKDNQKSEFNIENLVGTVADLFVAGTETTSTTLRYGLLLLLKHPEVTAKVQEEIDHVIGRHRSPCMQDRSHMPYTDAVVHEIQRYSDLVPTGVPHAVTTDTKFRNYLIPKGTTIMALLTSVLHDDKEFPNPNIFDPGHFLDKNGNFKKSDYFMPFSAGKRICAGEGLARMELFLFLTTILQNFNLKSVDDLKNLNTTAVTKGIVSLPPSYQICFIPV
Nature of the data set: Cytochrome P450 inhibition, CYP2C8. In kind it is in vitro ADME. The procedure: (§1) The compounds of Example 1 and also Example 187 of PCT/US09/036,501 were tested for their activity at the cytochrome P450 enzymes CYP3A4 and CYP2C8. Utilizing procedures similar to that described by Walasky et al. and the references therein, the following human IC50 values were determined (Walsky, R. L.; Obach, R. S. Drug Metab. Dispos. 2004, 32, 647-660.)

In another data set the target is T2, PHD2 (Homo sapiens, UniProt Q9GZT9).
T2 construct: FLAG-tagged full length PHD2 expressed in and purified from baculovirus-infected Sf9 cells; FLAG; made in house; host or cells: baculovirus-infected Sf9 cells
Nature of the data set: PHD2 / HIF-1α peptide time resolved fluorescence assay. In kind it is biochemical. On the procedure: To each well of a 96-well plate was added 1 μL of test compound in DMSO and 20 μl of assay buffer (50 mM Tris pH 7.4/0.01% Tween-20/0.1 mg/ml bovine serum albumin/10 μM ferrous sulfate/1 mM sodium ascorbate/20 μg/ml catalase) containing 0.15 μg/ml FLAG-tagged full length PHD2 expressed in and purified from baculovirus-infected Sf9 cells. After a 30 min preincubation at room temperature, the enzymatic reactions were initiated by the addition of 4 μL of substrates (final concentrations of 0.2 μM 2-oxoglutarate and 0.5 μM HIF-1α peptide biotinyl-DLDLEMLAPYIPMDDDFQL). After 2 hr at room temperature, the reactions were terminated and signals were developed by the addition of a 25 μL quench/detection mix to a final concentration of 1 mM ortho-phenanthroline, 0.1 mM EDTA, 0.5 nM anti-(His)6 LANCE reagent (Perkin-Elmer Life Sciences), 100 nM AF647-labeled streptavidin (Invitrogen), and 2 μg/ml (His)-6-VIAL complex (S. Tan(2001) Protein Expr. Purif. 21, 224-234). The ratio of time resolved fluorescence signals at 665 and 620 nm was determined, and percent inhibition was calculated relative to an uninhibited control sample run in parallel.

Data set [1] is described as follows: Pharmacokinetics after intravenous dosing in dogs (plasma concentration by LC-MS/MS). In kind it is in vivo. The note with it: beagle, dog, dogs (beagles), 0.5 mg/kg intravenous. The procedure: The pharmacokinetics and cytochrome P450 activity of Example 1 (E-1) were evaluated, and compared to that of Example 187 disclosed in International PCT application PCT/US09/036,501, filed Mar. 9, 2009. Compounds were formulated in a 1:1 solution (by volume) of PEG200: water and dosed at 0.5 mg/kg of body weight. The formulation was dosed intravenously in 2 dogs (beagles), and blood was drawn at the following time points (hours) 0.08, 0.25, 0.5, 1, 2, 4, 6, 8, 24. The plasma concentrations shown in the table below were determined by protein precipitation followed by liquid chromatography—tandem mass spectrometry analysis.

For the next data set, the target named is CYP3A4 (Homo sapiens, UniProt P08684). The data set can be described thus: Cytochrome P450 inhibition, CYP3A4. In kind it is in vitro ADME. The procedure: as §1

The structures appear in SMILES notation.

Data on 1 compound can be found in patent US8372857B2, “Substituted 4-hydroxypyrimidine-5-carboxamides” (Merck Sharp & Dohme Corp., priority 2009, dated 2013).

T2 sequence (Q9GZT9 whole entry): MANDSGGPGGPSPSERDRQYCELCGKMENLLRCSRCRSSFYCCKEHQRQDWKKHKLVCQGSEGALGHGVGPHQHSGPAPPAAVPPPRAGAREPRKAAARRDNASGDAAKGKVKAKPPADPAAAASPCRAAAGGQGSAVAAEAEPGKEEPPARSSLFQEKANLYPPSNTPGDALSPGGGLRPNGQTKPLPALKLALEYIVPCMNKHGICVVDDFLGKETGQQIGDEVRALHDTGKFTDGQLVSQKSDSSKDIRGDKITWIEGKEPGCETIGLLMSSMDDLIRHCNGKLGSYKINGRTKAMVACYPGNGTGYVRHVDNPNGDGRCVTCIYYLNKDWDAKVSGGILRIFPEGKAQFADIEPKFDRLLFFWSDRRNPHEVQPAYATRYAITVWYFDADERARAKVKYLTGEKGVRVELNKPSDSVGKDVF
Chain of CYP3A4 (P08684 whole entry): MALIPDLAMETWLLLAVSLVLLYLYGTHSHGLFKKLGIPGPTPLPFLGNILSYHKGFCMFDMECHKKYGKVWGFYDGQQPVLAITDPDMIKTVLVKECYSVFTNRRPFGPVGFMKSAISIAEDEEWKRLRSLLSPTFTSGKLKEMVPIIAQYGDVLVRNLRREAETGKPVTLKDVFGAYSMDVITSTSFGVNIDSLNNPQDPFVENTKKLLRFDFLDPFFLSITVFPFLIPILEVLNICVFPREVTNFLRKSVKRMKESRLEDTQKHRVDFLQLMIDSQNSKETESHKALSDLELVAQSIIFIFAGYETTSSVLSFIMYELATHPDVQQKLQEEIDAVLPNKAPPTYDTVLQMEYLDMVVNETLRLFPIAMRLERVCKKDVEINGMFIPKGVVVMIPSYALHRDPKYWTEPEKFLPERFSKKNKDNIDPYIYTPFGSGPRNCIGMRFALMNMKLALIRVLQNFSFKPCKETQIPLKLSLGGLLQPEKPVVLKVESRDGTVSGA

In general, IC50 refers to the point on the concentration scale where inhibition reaches its midpoint. The term MRT denotes a mean duration of stay, worked out from the concentration-time curve. The clearance is the volume of plasma or blood freed of the substance per unit of time. Lower therefore signals a low capacity for elimination. As to `COc1ccc(-c2ccc(C(C)(C)NC(=O)c3cnc(-c4cccnn4)nc3O)cn2)cc1` [Example 1, 4-Hydroxy-N-{1-[6-(4-methoxyphenyl)pyridin-3-yl]-1-methylethyl}-2-pyridazin-3-ylpyrimidine-5-carboxamide], the IC50 was 49.5 µM against CYP2C8, not above 0.01 µM at PHD2 (read-out: PHD2 binding activity expressed as IC50) and more than 50 µM at CYP3A4. Moreover, the “IC50, inhibition of the interaction between PHD2 and a HIF peptide” value on PHD2 (general range statement, units within the value) lay in the range of 0.0001 to 10 µM. Further, the MRT in data set [1] stood at 6.57 h. The clearance in data set [1] came to 2.49 mL/min/kg. Further, the concentration at 0.08 h in data set [1] (0.08 hours) was found to be 1500 nM. The same compound showed a concentration at 0.25 h in data set [1] (0.25 hours) of 1150 nM. For the same compound, the concentration at 0.5 h in data set [1] (0.50 hours) was 1110 nM. Moreover, in data set [1] (1.00 hours), the concentration at 1 h was 944 nM. The concentration at 2 h in data set [1] (2.00 hours) stood at 754 nM. This compound also yielded a concentration at 4 h in data set [1] (4.00 hours) of 581 nM. For the same compound, the concentration at 6 h in data set [1] (6.00 hours) is 374 nM. This compound also displayed a concentration at 8 h in data set [1] (8.00 hours) of 475 nM. For the same compound, the concentration at 24 h in data set [1] (24.00 hours) was found to be 23 nM. For the same compound, the half-life in data set [1] (read-out: T ½ (converted)) is 4.09 h.
